Patent US20260184663A1, “INDENE COMPOUNDS, PHARMACEUTICAL COMPOSITIONS THEREOF, AND THEIR THERAPEUTIC APPLICATIONS” (NucMito Pharmaceuticals co. Ltd., priority 2022, published 2026)

How the values were obtained:
Format in all cases: cell-based
[1] = system: B16F10 (malignant melanoma); assay: Antiproliferative activity (CCK-8 cell viability), B16F10; conditions: Mus musculus, 72 h, read-out: Antiproliferative activity in cancerous cells, B16F10 (inhibition of cell growth); for inhibition at 3.3 µM: B16-F10, Compound concentration: 3.3 μM; for inhibition at 10 µM: B16-F10, Compound concentration: 10 μM
How it was run: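 Attached B16F10 cells in 96-well plates were incubated with compound at 37° C for 72 h, followed by 10 μL CCK-8 reagent per well and a further 4 h incubation. A multi-well plate reader measured absorbance at 450 nm. Percent viability across replicates was calculated against DMSO vehicle-treated cells.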

[2] = system: A431 (epidermoid carcinoma); assay: Antiproliferative activity (CCK-8 cell viability), A431; conditions: Homo sapiens, 72 h, read-out: Antiproliferative activity in cancerous cells, A431 (inhibition of cell growth); for inhibition at 3.3 µM: A-431, Compound concentration: 3.3 μM; for inhibition at 10 µM: A-431, Compound concentration: 10 μM
How it was run: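 Cell viability of compound-treated A431 cells was measured with a Cell Counting Kit-8. Each well received 10 μL of CCK-8 after 72 h of compound exposure, followed by 4 h incubation at 37° C. and a 450 nm plate-reader measurement. Percent viability was calculated relative to DMSO controls across replicates.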

[3] = system: A549 (lung adenocarcinoma); assay: Antiproliferative activity (CCK-8 cell viability), A549; conditions: Homo sapiens, 72 h, read-out: Antiproliferative activity in cancerous cells, A549 (inhibition of cell growth); for inhibition at 3.3 µM: Compound concentration: 3.3 μM; for inhibition at 10 µM: Compound concentration: 10 μM
How it was run: (§1)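 Cells were seeded at 2,000-5,000/well (HeLa in MEM, HepG2 and SW480 in DMEM, A549 in F-12K, all with 10% FBS) and treated with compound at 3.3, 10 or 30 μM for 72 h at 37° C. CCK-8 was added for 4 h, absorbance was read at 450 nm, and viability was expressed relative to DMSO-treated wells.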

[4] = system: alpha-smooth muscle actin (α-SMA); assay: Inhibition of TGF-β induced expression of alpha-smooth muscle actin (α-SMA) in CFSC cells (western blot); conditions: compound at 10 μM, TGF-β (10 ng/mL), 24 hours, band intensity vs TGF-β only
Protocol: The ability of a compound to inhabit the TGF-β induced expression of alpha-smooth muscle actin (α-SMA) was evaluated in CCl4-treated fat storing (CFSC) cells. α-SMA is considered as a reliable marker of hepatic stellate cell activation and a key biomarker for liver fibrosis.
CFSC cells maintained in a DMEM medium supplemented with 10% fetal bovine serum were seeded to 12-well culture dishes and grown to a confluence of 60-70% the next day. Culture was changed to a serum-free DMEM medium, and the cells were treated with a compound at 10 μM in the presence of TGF-β (10 ng/mL). The cells were incubated for another 24 hours. All culture was maintained at 37° C. in 5% carbon dioxide.
An NP-40 lysate solution (50 mM Tris (pH 7.4), 150 mM NaCl, 1% NP-40) with EDTA free cocktail added was used to lyse the cells on ice for 30 min. The lysate was collected and centrifuged at 4° C. for 10 min at 12,000 rpm. The pellet was discarded and the supernatant was transferred to a new tube. Cell lysates were loaded with 5× loading buffer and boiled for 10 min, resolved by 10% SDS-polyacrylamide gel electrophoresis (SDS-PAGE), and transferred to PVDF membrane. The membrane was blocked with 5% skim milk in Tris-buffered saline and TWEEN® 20 (TBST; 10 mM Tris-HCl (pH 8.0), 150 mM NaCl, 0.1% TWEEN® 20) for 1 h at room temperature and then incubated with α-SMA and β-actin antibodies overnight at 4° C. After washing twice with TBST, the membrane was probed with a horseradish […] anti-immunoglobulin (1:5000 dilution) for 1 h at room temperature. After two subsequent rinses in TBST, immunoreactive products were reacted with ECL and visualized by a UVP CHEMSTUDIO™ imaging system. The western blotting bands are quantitated using an ImageJ software. The percentage of inhibition was obtained by calculating the percentage decrease in the band intensity compared to the one treated with TGF-β only.
The results are summarized in Table 1, where A represents a value no less of 80% inhibition, B represents a value less than […] but no less than […], C represents a value less than 50% but no less than 30% inhibition, and D represents a value less than 30% inhibition with a compound at 10 μM.

[5] = system: MDA-MB-231 (breast cancer); assay: Antiproliferative activity (CCK-8 cell viability), MDA-MB-231; conditions: Homo sapiens, 72 h, read-out: Antiproliferative activity in cancerous cells, MDA-MB-231 (inhibition of cell growth); for inhibition at 3.3 µM: Compound concentration: 3.3 μM; for inhibition at 10 µM: Compound concentration: 10 μM
How it was run: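 In this CCK-8 viability assay, MDA-MB-231 cells maintained in Dulbecco's modified Eagle's medium containing 10% fetal bovine serum were placed in 96-well plates (2,000-5,000 cells/well) and treated with compound for 72 h at 37° C. A 4 h incubation with 10 μL CCK-8 followed, plates were read at 450 nm, and viability was expressed against DMSO vehicle wells across replicates.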

HeLa (cervical cancer) = assay: Antiproliferative activity (CCK-8 cell viability), HeLa; conditions: Homo sapiens, 72 h, read-out: Antiproliferative activity in cancerous cells, HELA (inhibition of cell growth); for inhibition at 3.3 µM: Compound concentration: 3.3 μM; for inhibition at 10 µM: Compound concentration: 10 μM
How it was run: as §1

HepG2 (liver cancer) = assay: Antiproliferative activity (CCK-8 cell viability), HepG2; conditions: Homo sapiens, 72 h, read-out: Antiproliferative activity in cancerous cells, HepG2 (inhibition of cell growth); for inhibition at 3.3 µM: Compound concentration: 3.3 μM; for inhibition at 10 µM: Compound concentration: 10 μM
How it was run: as §1

SW480 (colon cancer) = assay: Antiproliferative activity (CCK-8 cell viability), SW480; conditions: Homo sapiens, 72 h, read-out: Antiproliferative activity in cancerous cells, SW480 (inhibition of cell growth); for inhibition at 3.3 µM: Compound concentration: 3.3 μM; for inhibition at 10 µM: Compound concentration: 10 μM
How it was run: as §1

Row | Structure (SMILES) | inhibition at 3.3 µM [1] | inhibition at 10 µM [1] | inhibition at 3.3 µM [2] | inhibition at 10 µM [2] | inhibition at 3.3 µM [3] | inhibition at 10 µM [3] | inhibition at 10 µM [4] | inhibition at 3.3 µM [5] | inhibition at 10 µM [5] | inhibition at 3.3 µM (HeLa (cervical cancer)) | inhibition at 10 µM (HeLa (cervical cancer)) | inhibition at 3.3 µM (HepG2 (liver cancer)) | inhibition at 10 µM (HepG2 (liver cancer)) | inhibition at 3.3 µM (SW480 (colon cancer)) | inhibition at 10 µM (SW480 (colon cancer))
1 | COc1ccc2c(c1)/C(=C\c1cccc(COc3ccc(F)cc3)c1)C(C)=C2CC(=O)O [B22, (Z)-2-(1-(3-((4-Fluorophenoxy)methyl)benzylidene)-6-methoxy-2-methyl-1H-inden-3-yl)acetic acid] | < 30% | < 30% | < 30% | < 30% | < 30% | < 30% | > 80% | 30 to 50% | 30 to 50% | < 30% | 30 to 50% | < 30% | < 30% | < 30% | < 30%
2 | O=C(O)CC1=C(C2CCc3ccc(F)cc32)/C(=C/c2ccc(Oc3ccc(F)cc3)cc2)c2ccc(F)cc21 (stereo not drawn) [C12, (Z)-2-(5′,6-Difluoro-1′-(4-(4-fluorophenoxy)benzylidene)-2,3-dihydro-1H,1′H-[1,2′-biinden]-3′-yl)acetic acid] | ≥ 50% | ≥ 50% | ≥ 50% | ≥ 50% | ≥ 50% | ≥ 50% | > 80% | ≥ 50% | ≥ 50% | ≥ 50% | ≥ 50% | ≥ 50% | ≥ 50% | ≥ 50% | ≥ 50%
3 | COc1ccc(/C=C2/C(C)=C(CC(=O)O)c3cc(F)ccc32)c(OCc2ccccc2)c1 [B29, (Z)-2-(1-(2-(Benzyloxy)-4-methoxybenzylidene)-5-fluoro-2-methyl-1H-inden-3-yl)acetic acid] | < 30% | ≥ 50% | < 30% | ≥ 50% | < 30% | < 30% | > 80% | 30 to 50% | 30 to 50% | < 30% | ≥ 50% | < 30% | ≥ 50% | < 30% | < 30%
4 | CC1=C(CC(=O)O)c2cc(C)ccc2/C1=C\c1cccc(Oc2ccccc2)c1 [C17, (Z)-2-(2,5-Dimethyl-1-(3-phenoxybenzylidene)-1H-inden-3-yl)acetic acid] | < 30% | < 30% | 30 to 50% | ≥ 50% | < 30% | ≥ 50% | > 80% | 30 to 50% | ≥ 50% | < 30% | 30 to 50% | 30 to 50% | ≥ 50% | < 30% | < 30%
5 | CC1=C(CC(=O)O)c2cc(F)cc(F)c2/C1=C\c1cccc(COc2ccccc2)c1 [B7, (Z)-2-(5,7-Difluoro-2-methyl-1-(3-(phenoxymethyl)benzylidene)-1H-inden-3-yl)-acetic acid] | < 30% | 30 to 50% | 30 to 50% | ≥ 50% | < 30% | 30 to 50% | > 80% | ≥ 50% | ≥ 50% | ≥ 50% | 30 to 50% | 30 to 50% | 30 to 50% | ≥ 50% | ≥ 50%
